Source: patent publication US9550796B2, “Pyrrolopyrrolone derivatives and their use as BET inhibitors” (NOVARTIS AG, priority 2013, dated 2017)

Assays:
[1] = biological target: CREBBP (Homo sapiens (Human), UniProt Q92793); test: AlphaScreen in-vitro binding assay for CREBBP; conditions: 324 nM His-CREBBP (1081-1197), acetyl-histone H4 (AcK 5, 8, 12) peptide
Method in brief: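 IC50 values were derived by non-linear regression of percent inhibition across 8 compound concentrations. Protein was His-tagged CREBBP bromodomain (1081-1197), peptide acetyl-histone H4 (AcK 5, 8, 12), in HEPES pH 7.5 buffer. Read-out was AlphaScreen with Ni-chelate acceptor and streptavidin donor beads, 35 min at 30° C then 60 min at RT.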

[2] = test system: K-562; test: Cell growth inhibition assay (CellTiter-Glo), K-562; assay type: cell-based, human; conditions: K-562 cells, 4 days; for GI50: Homo sapiens, K562, 96 h, half-maximal growth inhibition; for K-562 TGI: total growth inhibition
Method in brief: (§1)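 Seed cells in their own media; add compound as 3-fold dilutions from 10 μM (0.1% DMSO final). Incubate 4 days at 37 °C, 5% CO2, then add CTG and read luminescence. Subtract no-cell background, correct to a day 0 plate, and fit IC50 and TGI.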

[3] = biological target: BRD2 (Homo sapiens (Human), UniProt P25440); test: TR-FRET in-vitro binding assay for BRD2; conditions: 45 nM His-Brd2(60-472), acetyl-histone H4 (AcK 5, 8, 12, 16) peptide
Protocol: TR-FRET In-Vitro Binding Assays for BRD2, BRD3, and BRD4: All assays were performed in 384-well microtiter plates. […] Liquid handling and incubation steps were done on an Innovadyne Nanodrop Express equipped with a robotic arm (Thermo CatX, Perkin Elmer/Caliper Twister II) and an incubator (Liconic STX40, Thermo Cytomat 2C450). The assay plates were prepared by addition of 50 nl per well of compound solution in 90% DMSO HummingBird nanodispenser (Zinsser Analytic). […] Reactions were incubated at 30° C. for 35 minutes. […] After 35 minutes incubation at 30° C., plates were measured in a Perkin Elmer EnVision multilabel reader. […] The stock solutions were stored at […] if not used immediately. For the test procedure the vials were defrosted and identified by a scanner whereby a working sheet was generated that guided the subsequent working steps. Compound dilutions were made in 96 well plates. This format enabled the assay of maximally […] at 8 concentrations (single points) including 4 reference compounds, if desired (known BET inhibitors from the prior art, for this and other assays of the type disclosed herein). The dilution protocol included the production of “pre-dilution plates”, “master plates” and “assay plates”. Polypropylene 96-well plates were used as pre-dilution plates. […] All dilution steps were done on a HamiltonSTAR robot. […] Identical “assay plates” were then prepared by pipetting 50 nL each of compound dilutions of the “master plates” into 384-well “assay plates” by means of a HummingBird 384-channel dispenser. These plates were used directly for the assay which was performed in a total volume of 13.55 μL.

[4] = biological target: BRD4 (Homo sapiens (Human), UniProt O60885); test: TR-FRET in-vitro binding assay for BRD4; conditions: 45 nM His-Brd4(44-477), acetyl-histone H4 (AcK 5, 8, 12, 16) peptide
Method in brief: (§2)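 Incubation at 30° C lasted 35 min, followed by TR-FRET measurement; each compound was tested as 8 single-point concentrations.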

[5] = test system: THP-1; test: Cell growth inhibition assay (CellTiter-Glo), THP-1; assay type: cell-based, human; conditions: THP-1 cells, 4 days; for GI50: Homo sapiens, 96 h, half-maximal growth inhibition; for THP-1 TGI: total growth inhibition
Method in brief: as §1

[6] = biological target: BRD3 (Homo sapiens (Human), UniProt Q15059); test: TR-FRET in-vitro binding assay for BRD3; conditions: 45 nM His-Brd3(20-477), acetyl-histone H4 (AcK 5, 8, 12, 16) peptide
Method in brief: as §2

[7] = test system: MV-4-11; test: Cell growth inhibition assay (CellTiter-Glo), MV-4-11; assay type: cell-based, human; conditions: MV-4-11 cells, 4 days; for GI50: Homo sapiens, MV4-11, 96 h, half-maximal growth inhibition; for MV-4-11 TGI: total growth inhibition
Method in brief: as §1

Sequence of CREBBP (Q92793 1081-1197): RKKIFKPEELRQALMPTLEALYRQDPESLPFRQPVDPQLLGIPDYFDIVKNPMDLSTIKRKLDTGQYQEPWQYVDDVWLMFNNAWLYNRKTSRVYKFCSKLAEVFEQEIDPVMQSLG
Sequence of BRD2 (P25440 60-472): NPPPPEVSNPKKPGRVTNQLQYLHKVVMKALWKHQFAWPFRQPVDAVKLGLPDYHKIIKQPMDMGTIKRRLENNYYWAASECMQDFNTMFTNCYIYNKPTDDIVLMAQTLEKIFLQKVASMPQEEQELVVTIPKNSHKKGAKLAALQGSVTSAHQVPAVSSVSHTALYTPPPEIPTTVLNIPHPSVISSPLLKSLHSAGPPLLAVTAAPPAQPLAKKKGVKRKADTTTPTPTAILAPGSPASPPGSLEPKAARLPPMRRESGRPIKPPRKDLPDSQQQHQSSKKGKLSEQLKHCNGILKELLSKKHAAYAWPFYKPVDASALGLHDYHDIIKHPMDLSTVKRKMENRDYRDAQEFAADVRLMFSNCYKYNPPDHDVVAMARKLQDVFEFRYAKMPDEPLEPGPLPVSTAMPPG
Sequence of BRD3 (Q15059 20-477): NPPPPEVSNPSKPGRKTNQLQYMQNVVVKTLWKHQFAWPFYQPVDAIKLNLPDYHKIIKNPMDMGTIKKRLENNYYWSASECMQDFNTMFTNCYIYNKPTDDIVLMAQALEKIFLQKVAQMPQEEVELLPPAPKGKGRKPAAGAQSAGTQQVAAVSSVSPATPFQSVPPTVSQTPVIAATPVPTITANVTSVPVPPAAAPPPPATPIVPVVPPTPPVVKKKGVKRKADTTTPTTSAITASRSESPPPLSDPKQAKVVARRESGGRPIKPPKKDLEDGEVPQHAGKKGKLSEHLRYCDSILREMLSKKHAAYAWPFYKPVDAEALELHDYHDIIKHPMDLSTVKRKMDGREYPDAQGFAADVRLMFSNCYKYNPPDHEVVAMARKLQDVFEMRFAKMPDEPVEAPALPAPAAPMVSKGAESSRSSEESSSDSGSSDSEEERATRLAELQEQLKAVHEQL

SMILES	IC50 [1] [nM]	GI50 [2] [nM]	K-562 TGI [2] [nM]	IC50 [3] [nM]	IC50 [4] [nM]	GI50 [5] [nM]	THP-1 TGI [5] [nM]	IC50 [6] [nM]	GI50 [7] [nM]	MV-4-11 TGI [7] [nM]
COCn1cc(C)c2c1C(c1ccc(Cl)cc1)N(c1cc(C)c3nnn(C)c3n1)C2=O (centres unmarked) [Example 2, 6-(4-chlorophenyl)-5-(3,7-dimethyl-3H-[1,2,3]triazolo[4,5-b]pyridin-5-yl)-1-(methoxymethyl)-3-methyl-5,6-dihydropyrrolo[3,4-b]pyrrol-4(1H)-one]	> 37000	62.1	>10000	23	12	15.1	34.7	16	7.66	19.7
Cc1c[nH]c2c1C(=O)N(c1cc(C)c3nnc(C)n3c1)C2c1ccc(Cl)cc1 (centres unmarked) [Example 3, 6-(4-chlorophenyl)-5-(3,8-dimethyl-[1,2,4]triazolo[4,3-a]pyridin-6-yl)-3-methyl-5,6-dihydropyrrolo[3,4-b]pyrrol-4(1H)-one]	8200	55.4	>10000	24	14	15.7	36.9	16	7.68	18.75
Cc1cn(C2CN(C)C2)c2c1C(=O)N(c1cc(C)c3nnc(C)n3c1)C2c1ccc(Cl)cc1 (centres unmarked) [Example 5, 6-(4-chlorophenyl)-5-(3,8-dimethyl-[1,2,4]triazolo[4,3-a]pyridin-6-yl)-3-methyl-1-(1-methylazetidin-3-yl)-5,6-dihydropyrrolo[3,4-b]pyrrol-4(1H)-one]	6300	47.8	>10000	45	24	12.1	36.2	25	6.3	13.05
Cc1cn(C2COC2)c2c1C(=O)N(c1cc(C)c3nnc(C)n3c1)C2c1ccc(Cl)cc1 (centres unmarked) [Example 6, 6-(4-chlorophenyl)-5-(3,8-dimethyl-[1,2,4]triazolo[4,3-a]pyridin-6-yl)-3-methyl-1-(oxetan-3-yl)-5,6-dihydropyrrolo[3,4-b]pyrrol-4(1H)-one]	6000	50.5	>10000	40	17	10.6	29.25	23	6.74	21.4
CC(=O)N1CC(n2cc(C)c3c2C(c2ccc(Cl)cc2)N(c2cc(C)c4nnc(C)n4c2)C3=O)C1 (centres unmarked) [Example 7, 1-(1-acetylazetidin-3-yl)-6-(4-chlorophenyl)-5-(3,8-dimethyl-[1,2,4]triazolo[4,3-a]pyridin-6-yl)-3-methyl-5,6-dihydropyrrolo[3,4-b]pyrrol-4(1H)-one]	7600	2060	>10000	32	17	196	449.5	16	50.2	135.8
CCOC(=O)N1CC(n2cc(C)c3c2C(c2ccc(Cl)cc2)N(c2cc(C)c4nnc(C)n4c2)C3=O)C1 (centres unmarked) [Example 8, Ethyl 3-(6-(4-chlorophenyl)-5-(3,8-dimethyl-[1,2,4]triazolo[4,3-a]pyridin-6-yl)-3-methyl-4-oxo-5,6-dihydropyrrolo[3,4-b]pyrrol-1(4H)-yl)azetidine-1-carboxylate]	5100	132	>10000	41	18	41.6	93.95	34	25.2	37.75
CNC(=O)n1cc(C)c2c1C(c1ccc(Cl)cc1)N(c1cc(C)c3nnc(C)n3c1)C2=O (centres unmarked) [Example 9, 6-(4-chlorophenyl)-5-(3,8-dimethyl-[1,2,4]triazolo[4,3-a]pyridin-6-yl)-N,3-dimethyl-4-oxo-5,6-dihydropyrrolo[3,4-b]pyrrole-1(4H)-carboxamide]	6000	78.7	>10000	28	24	17.1	43.3	15	13	26.75
Cc1cn(C(=O)N(C)C)c2c1C(=O)N(c1cc(C)c3nnc(C)n3c1)C2c1ccc(Cl)cc1 (centres unmarked) [Example 10, 6-(4-chlorophenyl)-5-(3,8-dimethyl-[1,2,4]triazolo[4,3-a]pyridin-6-yl)-N,N,3-trimethyl-4-oxo-5,6-dihydropyrrolo[3,4-b]pyrrole-1(4H)-carboxamide]	14500	102	>10000	55	33	29.8	69.85	34	19.4	36.25
CCOC(=O)n1cc(C)c2c1C(c1ccc(Cl)cc1)N(c1cc(C)c3nnc(C)n3c1)C2=O (centres unmarked) [Example 11, Ethyl 6-(4-chlorophenyl)-5-(3,8-dimethyl-[1,2,4]triazolo[4,3-a]pyridin-6-yl)-3-methyl-4-oxo-5,6-dihydropyrrolo[3,4-b]pyrrole-1(4H)-carboxylate]	7300	113	>10000	39	38	26	58.95	50	18.7	31.55
COCC(=O)N1CC(n2cc(C)c3c2C(c2ccc(Cl)cc2)N(c2cc(C)c4nnc(C)n4c2)C3=O)C1 (centres unmarked) [Example 12, 6-(4-chlorophenyl)-5-(3,8-dimethyl-[1,2,4]triazolo[4,3-a]pyridin-6-yl)-1-(1-(2-methoxyacetyl)azetidin-3-yl)-3-methyl-5,6-dihydropyrrolo[3,4-b]pyrrol-4(1H)-one]	23900	1050	>10000	80	54	219	618.5	52	74.8	149
Cn1cc(-c2cc3c(n2C2CC2)C(c2ccc(Cl)cc2)N(c2cc(Cl)c(=O)n(C)c2)C3=O)ccc1=O (centres unmarked) [Example 66, 5-(5-chloro-1-methyl-6-oxo-1,6-dihydropyridin-3-yl)-6-(4-chlorophenyl)-1-cyclopropyl-2-(1-methyl-6-oxo-1,6-dihydropyridin-3-yl)-5,6-dihydropyrrolo[3,4-b]pyrrol-4(1H)-one]	240	250	>10000	52	–	76.4	135	–	43.9	87.45
CC(=O)Nc1cn(C)c2c1C(=O)N(c1cc(C)c3nnc(C)n3c1)C2c1ccc(Cl)cc1 (centres unmarked) [Example 103, N-(6-(4-chlorophenyl)-5-(3,8-dimethyl-[1,2,4]triazolo[4,3-a]pyridin-6-yl)-1-methyl-4-oxo-1,4,5,6-tetrahydropyrrolo[3,4-b]pyrrol-3-yl)acetamide]	5200	241	>10000	31	–	45	119	–	19.9	52.6
